# Assay results reported in patent US9045461B2, “Phenyl-heteroaryl derivatives and methods of use thereof” (TransTech Pharma, LLC, priority 2010, dated 2015).
# Counter-ions that a name gives are not always drawn.
# How the values were obtained:
# sRAGE binding to S100b = molecular target: T1, sRAGE binding to S100b (Homo sapiens, UniProt Q15109); experiment: RAGE binding assay (ELISA), S100b as the RAGE ligand; conditions: compounds tested in hydrochloride salt form, concentration at which 50% signal has been inhibited
# T1 construct: extracellular domain can be isolated by proteolysis of RAGE to generate soluble RAGE (sRAGE) comprised of the V and C domains
# Method: (§1) The following assay method may be used to identify compounds of Formula (I) or pharmaceutically acceptable salts thereof which are useful as inhibitors of binding of physiological RAGE ligands, such as S100b and β-amyloid, to RAGE.
# (§2) S100b, β-amyloid, or CML (500 ng/100 μL/well) in 100 mM sodium bicarbonate/sodium carbonate buffer (pH 9.8) is loaded onto the wells of a NUNC Maxisorp flat bottom 96-well microtitre plate. The plate is incubated at 4° C. overnight. The wells are aspirated and treated with 50 mM imidazole buffer saline (pH 7.2) (with 5 mM CaCl2/MgCl2) containing 1% bovine serum albumin (BSA) (300 μL/well) for 1 h at RT. The wells are aspirated.
# (§3) Test compounds are dissolved in nanopure water (concentration: 10-100 μM). DMSO may be used as co-solvent. 25 μL of test compound solution in 4% DMSO is added, along with 75 μL sRAGE (6 nM FAC) to each well and samples are incubated for 1 h at 37° C. The wells are washed several times with 155 mM NaCl pH 7.2 buffer saline and are soaked for several seconds between each wash.
# (§4) Non-radioactive detection is performed by adding:
# (§5) 10 μL Biotinylated goat F(ab′)2 Anti-mouse IgG. (8.0×10-4 mg/mL, FAC), 5 μL Alk-phos-Streptavidin (3×10-3 mg/mL FAC), 0.42 μL per 5 mL Monoclonal antibody for sRAGE (FAC 6.0×10-3 mg/mL) to 5 mL 50 mM imidazole buffer saline (pH 7.2) containing 0.2% bovine serum albumin and 5 mM CaCl2. The mixture is incubated for 30 minutes at RT.
# (§6) 100 μL of complex is added to each well and incubation is allowed to proceed at rt for 1 h. Wells are washed several times with wash buffer and soaked several seconds between each wash. 100 μL 1 mg/mL (pNPP) in 1 M diethanolamine (pH adjusted to 9.8 with HCl) is added. Color is allowed to develop in the dark for 30 min to 1 h at rt. The reaction is quenched with 10 μL of stop solution (0.5-1.0 N NaOH in 50% ethanol) and the absorbance is measured spectrophotometrically with a microplate reader at 405 nm.
# (§7) The IC50 (μM) value in the ELISA assay represents the concentration of compound at which 50% signal has been inhibited.
# [1] = molecular target: T2, sRAGE binding to β-amyloid (Homo sapiens, UniProt Q15109); experiment: RAGE binding assay (ELISA), β-amyloid as the RAGE ligand; conditions: compounds tested in hydrochloride salt form, concentration at which 50% signal has been inhibited
# T2 construct: extracellular domain can be isolated by proteolysis of RAGE to generate soluble RAGE (sRAGE) comprised of the V and C domains
# Method: as §1, §2, §3, §4, §5, §6, §7
# T2 sequence (Q15109 23-342 limits assumed): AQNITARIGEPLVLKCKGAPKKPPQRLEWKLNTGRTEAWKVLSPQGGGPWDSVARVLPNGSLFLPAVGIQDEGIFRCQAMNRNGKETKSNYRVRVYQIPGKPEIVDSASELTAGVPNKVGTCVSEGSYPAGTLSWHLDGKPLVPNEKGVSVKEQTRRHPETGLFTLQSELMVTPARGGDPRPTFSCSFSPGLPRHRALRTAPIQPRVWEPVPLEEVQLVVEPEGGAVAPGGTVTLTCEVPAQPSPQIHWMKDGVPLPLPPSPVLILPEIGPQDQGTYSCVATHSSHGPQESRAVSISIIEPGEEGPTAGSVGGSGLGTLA
# T1 sequence (Q15109 23-342 limits assumed): as above
IC50 (sRAGE binding to S100b) [nM],IC50 [1] [nM],SMILES
2130,2330,"CCCCc1nnc(OC[C@H]2CN(C)C[C@@H]2CO)cc1-c1ccc(OCc2ccccc2)cc1 (racemic) [Example 6, (±)-trans-{4-[5-(4-Benzyloxy-phenyl)-6-butyl-pyridazin-3-yloxymethyl]-1-methyl-pyrrolidin-3-yl}-methanol dihydrochloride]"
2330,1520,"CCCCc1nnc(OC[C@H]2CN(C)C[C@@H]2COC)cc1-c1ccc(OCc2ccccc2)cc1 (racemic) [Example 7, (±)-trans-4-(4-Benzyloxy-phenyl)-3-butyl-6-(4-methoxymethyl-1-methyl-pyrrolidin-3-ylmethoxy)-pyridazine dihydrochloride]"
2640,2900,"CCCCc1nnc(OC[C@H]2CCN(C)C[C@H]2O)cc1-c1ccc(OC2CCCCC2)cc1 (racemic) [Example 24, (±)-cis-4-[6-Butyl-5-(4-cyclohexyloxy-phenyl)-pyridazin-3-yloxymethyl]-1-methyl-piperidin-3-ol dihydrochloride]"
1370,1540,"CCCCc1nnc(OC[C@H]2CCN(C)C[C@@H]2O)cc1-c1ccc(OC2CCCCC2)cc1 (racemic) [Example 25, (±)-trans-4-[6-Butyl-5-(4-cyclohexyloxy-phenyl)-pyridazin-3-yloxymethyl]-1-methyl-piperidin-3-ol dihydrochloride]"
740,740,"CCCCc1nnc(OC[C@H]2CCN(C)C[C@H]2OC)cc1-c1ccc(OC2CCCCC2)cc1 (racemic) [Example 35, (±)-cis-3-Butyl-4-(4-cyclohexyloxy-phenyl)-6-(3-methoxy-1-methyl-piperidin-4-ylmethoxy)-pyridazine dihydrochloride]"
960,960,"CCCCc1nnc(OC[C@H]2CCN(C)C[C@@H]2OC)cc1-c1ccc(OC2CCCCC2)cc1 (racemic) [Example 36, (±)-trans-3-Butyl-4-(4-cyclohexyloxy-phenyl)-6-(3-methoxy-1-methyl-piperidin-4-ylmethoxy)-pyridazine dihydrochloride]"
2190,4040,"CCCCc1nnc(O[C@H]2CCN(C)C[C@@H]2F)cc1-c1ccc(OC2CCCCC2)cc1 (racemic) [Example 41, (±)-trans-3-Butyl-4-(4-cyclohexyloxy-phenyl)-6-(3-fluoro-1-methylpiperidin-4-yloxy)-pyridazine dihydrochloride]"
2210,1800,"CCCCc1nnc(O[C@H]2CCN(C)C[C@H]2F)cc1-c1ccc(OC2CCCCC2)cc1 (racemic) [Example 42, (±)-cis-3-Butyl-4-(4-cyclohexyloxy-phenyl)-6-(3-fluoro-1-methylpiperidin-4-yloxy)-pyridazine dihydrochloride]"
2070,830,"CCCCc1nnc(OC[C@H]2CN(C)CC[C@H]2O)cc1-c1ccc(OC2CCCCC2)cc1 (racemic) [Example 43, (±)-cis-3-[6-Butyl-5-(4-cyclohexyloxy-phenyl)-pyridazin-3-yloxymethyl]-1-methyl-piperidin-4-ol dihydrochloride]"
480,320,"CCCCc1nnc(OC[C@H]2CN(C)CC[C@H]2OC)cc1-c1ccc(OC2CCCCC2)cc1 (racemic) [Example 44, (±)-cis-3-Butyl-4-(4-cyclohexyloxy-phenyl)-6-(4-methoxy-1-methyl-piperidin-3-ylmethoxy)-pyridazine dihydrochloride]"
1350,1250,"CCCCc1nnc(OC[C@H]2CN(C)CC[C@@H]2OC)cc1-c1ccc(OC2CCCCC2)cc1 (racemic) [Example 46, (±)-trans-3-Butyl-4-(4-cyclohexyloxy-phenyl)-6-(4-methoxy-1-methyl-piperidin-3-ylmethoxy)-pyridazine dihydrochloride]"
2930,2500,"CCCCc1nnc(OC[C@H]2CN(C)CC[C@@H]2O)cc1-c1ccc(OC2CCCCC2)cc1 (racemic) [Example 47, (±)-trans-3-[6-Butyl-5-(4-cyclohexyloxy-phenyl)-pyridazin-3-yloxymethyl]-1-methyl-piperidin-4-ol dihydrochloride]"
2600,8960,"CCCCc1nnc(O[C@@H]2CN(C)CC[C@H]2C(F)F)cc1-c1ccc(OC2CCCCC2)cc1 (racemic) [Example 48, (±)-trans-3-butyl-4-(4-cyclohexyloxy-phenyl)-6-(4-difluoromethyl-1-methyl-piperidin-3-yloxy)-pyridazine dihydrochloride]"
2610,1460,"CCCCc1nnc(C(=O)N2CC[C@@H](CN(C)C)[C@@H](OC)C2)cc1-c1ccc(OC2CCCCC2)cc1 (racemic) [Example 102, (±)-cis-[6-Butyl-5-(4-cyclohexyloxy-phenyl)-pyridazin-3-yl]-((3R,4S)-4-dimethylaminomethyl-3-methoxy-piperidin-1-yl)-methanone dihydrochloride]"
1120,1610,"CCCCc1nnc(C(=O)NC[C@@H]2CCN(C)C[C@@H]2OC)cc1-c1ccc(OC2CCCCC2)cc1 (racemic) [Example 104, (±)-cis-6-Butyl-5-(4-cyclohexyloxy-phenyl)-pyridazine-3-carboxylic acid (3-methoxy-1-methyl-piperidin-4-ylmethyl)-amide dihydrochloride]"
1040,1340,"CCCCc1nnc(C(=O)NC[C@H]2CCN(C)C[C@H]2F)cc1-c1ccc(OC2CCCCC2)cc1 (racemic) [Example 110, (±)-cis-6-Butyl-5-(4-cyclohexyloxy-phenyl)-pyridazine-3-carboxylic acid (3-fluoro-1-methyl-piperidin-4-ylmethyl)-amide dihydrochloride]"
1440,1470,"CCCCc1nnc(C(=O)N[C@H]2CCN(C)C[C@H]2O)cc1-c1ccc(OC2CCCCC2)cc1 (racemic) [Example 112, (±)-cis-6-Butyl-5-(4-cyclohexyloxy-phenyl)-pyridazine-3-carboxylic acid (3-hydroxy-1-methyl-piperidin-4-yl)-amide dihydrochloride]"
970,560,"CCCCc1nnc(C(=O)N[C@@H]2CCN(C)C[C@@H]2OC)cc1-c1ccc(OC2CCCCC2)cc1 (stereo in doubt) [Example 107, 6-Butyl-5-(4-cyclohexyloxy-phenyl)-pyridazine-3-carboxylic acid (3-methoxy-1-methyl-piperidin-4-yl)-amide dihydrochloride]"
950,1090,"CCCCc1nnc(OC2CCN(C)CC2)cc1-c1ccc(OCc2ccccc2)cc1 [Example 1, 4-(4-enzyloxy-phenyl)-3-butyl-6-(1-methyl-piperidin-4-yloxy)-pyridazine dihydrochloride]"
1320,1230,"CCCCc1nnc(OCC2CCN(C)CC2)cc1-c1ccc(OCc2ccccc2)cc1 [Example 2, 4-(4-Benzyloxy-phenyl)-3-butyl-6-(1-methyl-piperidin-4-ylmethoxy)-pyridazine]"
2490,2280,"CCCCc1nnc(OCCN(CC)CC)cc1-c1ccc(OCc2ccccc2)cc1 [Example 3, {2-[5-(4-Benzyloxy-phenyl)-6-butyl-pyridazin-3-yloxy]-ethyl}-diethyl-amine dihydrochloride]"
1140,1240,"CCCCc1nnc(OCCCN(CC)CC)cc1-c1ccc(OCc2ccccc2)cc1 [Example 4, 3-[5-(4-Benzyloxy-phenyl)-6-butyl-pyridazin-3-yloxy]-propyl}-diethyl-mine dihydrochloride]"
3110,6280,"CCCCc1nnc(OCCCN2CCCCC2)cc1-c1ccc(OCc2ccccc2)cc1 [Example 5, 4-(4-Benzyloxy-phenyl)-3-butyl-6-(3-piperidin-1-yl-propoxy)-pyridazine dihydrochloride]"
4840,3720,"CCCCc1nnc(OCCCN2CCOCC2)cc1-c1ccc(OCc2ccccc2)cc1 [Example 8, 4-{3-[5-(4-Benzyloxy-phenyl)-6-butyl-pyridazin-3-yloxy]-propyl}-morpholine dihydrochloride]"
2700,3140,"CCCCc1nnc(OCC2CN(C)C2)cc1-c1ccc(OCc2ccccc2)cc1 [Example 9, 4-(4-Benzyloxy-phenyl)-3-butyl-6-(1-methyl-azetidin-3-ylmethoxy)-pyridazine dihydrochloride]"
